Measured values taken from patent publication US20240279232A1, “USE OF SUBSTITUTED 5-(4-METHYL-6-PHENYL-4H-BENZO[F]IMIDAZO[1,5-A][1,4] DIAZEPIN-3-YL)-1,2,4-O[…] THE TREATMENT OF INFLAMMATORY CONDITIONS” (priority 2021, published 2024).

How the values were obtained:
RAW macrophages [1] = test: Cell viability (CellTiter-Glo), RAW macrophages; assay type: cell-based, mouse; details: CellTiter-Glo
Mouse microglia [2] = test: Cell viability (CellTiter-Glo), mouse microglia; assay type: cell-based; details: 50 μM, CellTiter-Glo
Protocol: (§1) Next, a library of GABAAR ligands was investigated to identify compounds that reduce the production of NO as a marker of anti-inflammatory activity. […] NO was quantified with a Greiss assay. Cell viability was determined with CellTiter-Glo.
(§2) Nitric oxide production (Griess assay) and viability assay (CellTiter-Glo). 80 μL of mouse microglia culture (1×10^6 cells/mL) was plated into sterile 384 well plates representing non-activated wells. The remaining culture was activated with 50 ng/ml LPS (Invivogen, NC9836) and 150 U/mL IFNγ (R&D Systems, 485MI100) and distributed into the 384 well plates. […] Assay plates were incubated for approximately 24 hours (unless otherwise noted) at 37° C., centrifuged, and 40 μL of supernatant transferred to a new plate for analysis using the Griess Assay (Promega, Madison, WI). Absorbance at 530 nm was measured using a TECAN Infinite M1000 plate reader. The remaining 40 μL containing cells was analyzed for toxicity by the CellTiter-Glo Assay (Promega, Madison, WI). Luminescence was read using a TECAN Infinite M1000 plate reader.

Mouse microglia [3] = test: NO production (Griess assay), LPS/IFNγ-activated mouse microglia; assay type: cell-based; details: for inhibition at 10 µM / inhibition at 50 µM: Mus musculus, Microglia, 24 h
Protocol: as §1
Cell culture. A) HMC3 Microglia (CRL-3304) were maintained in treated cell culture flasks (Nunc, 156472) with EMEM (Corning, 10010CV) supplemented with 10% heat-inactivated FBS (Corning, 35011CV) and 100 U/mL penicillin and 100 μg/mL streptomycin (Hyclone, SV30010). Cultures were maintained at 37° C. and 5% CO2. When cells reached a density of 7×10^4 cells/mL, cultures were passaged with 0.25% Trypsin (Corning, 25-053-CI) and resuspended to a density no lower than 10,000 cells/mL. B) Human and mouse microglia cell lines were a gift from Dr. David Alvarez-Carbonell at Case Western Reserve University (Cleveland, OH). Microglia were cultured in cell culture treated flasks (Nunc, 156472) with DME/F12 media (Hyclone, SH30023.01) supplemented with 10% heat-inactivated FBS (Corning, 35011CV), 100 U/mL penicillin/100 μg/mL streptomycin (Hyclone, SV30010), and Normocin (Invivogen, ant-nr). Cultures were maintained at 37° C. and 5% CO2. […] Cultures were maintained at 37° C. and 5% CO2. Cells were passaged when they reached a density of approximately 3×10^6 cells/mL using cell scrapers (VWR, 10062-906) to lift cells from flask surface and resuspended at densities of approximately 500,000 cells/mL.
as §2

HEK293 = test: Viability assay (CellTiter-Glo), HEK293; assay type: cell-based, human; details: for Cell viability (%) HEK293 120 μM: CellTiter-Glo
Protocol: (§3) The screen identified several compounds that reduced NO in activated microglia and macrophages. The tested compounds included achiral and chiral imidazodiazepines and benzodiazepines. In general, microglia were more sensitive to compound treatment with more pronounced reduction of NO than macrophages. […] Cell viability assays with HEK293 (kidney) and HepG2 (liver) cells were conducted in a concentration dependent manner. A limited number of compounds, such as GL-III-63, GL-III-76A, and GL-III-77, were toxic at 120 μM.
(§4) Viability assay. Human liver hepatocellular carcinoma (HEPG2) and human embryonic kidney 293T (HEK293T) cell lines were purchased (ATCC) and cultured in 75 cm^2 flasks (CellStar). Cells were grown in DMEM/High Glucose (Hyclone, #SH3024301) media to which non-essential amino acids (Hyclone, #SH30238.01), 10 mM HEPES (Hyclone, #SH302237.01), 5×10^6 units of penicillin and streptomycin (Hyclone, #SV30010), and 10% of heat inactivated fetal bovine serum (Gibco, #10082147) were added. Cells were harvested using 0.05% Trypsin (Hyclone, #SH3023601), washed with PBS, and dispensed into sterile white, optical bottom 384-well plates (NUNC, #142762). After three hours, small molecule DMSO solutions were transferred with a Tecan Freedom EVO liquid handling system equipped with a 100 nL pin tool (V&P Scientific). The controls were 3-dibutylamino-1-(4-hexyl-phenyl)-propan-1-one (25 mM in DMSO, positive control) and DMSO (negative control). The cells were incubated for 48 hours followed by the addition of CellTiter-Glo™, a luminescence-based cell viability assay (Promega, Madison, WI). All luminescence readings were performed on a Tecan Infinite M1000 plate reader. The assay was carried out in quadruplet with two independent runs. The data were analyzed by nonlinear regression.

RAW macrophages [4] = test: NO production (Griess assay), LPS/IFNγ-activated RAW264.7 macrophages; assay type: cell-based, mouse; details: for Inhibition of NO production (%) RAW macrophages 10 μM: 24 hours, 1 μM GABA, LPS/IFNγ
HEPG2 = test: Viability assay (CellTiter-Glo), HEPG2; assay type: cell-based, human; details: for Cell viability (%) HEPG2 120 μM: CellTiter-Glo
Protocol: as §3, §4

[5] = tested on: BZR (benzodiazepine site of GABAAR); test: GABAAR/BZR binding, rat brain homogenate with 3H-flunitrazepam; details: rat brain homogenate, 3H-flunitrazepam; for BZR %: Percent inhibition at 10,000 nM
How it was run: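 Rat brain homogenate incubated with 3H-flunitrazepam near its Kd, typically 90 min at room temperature in the dark; nonspecific binding defined with 10 μM reference compound. Filtration on PEI-soaked mats, scintillation counting; compounds screened at 10,000 nM, those above 50% displacement taken to concentration–response for Ki by nonlinear regression (n=6).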

MOR (μ opioid receptor) = target: T1, MOR (μ opioid receptor) (Homo sapiens, UniProt P35372); test: MOR radioligand binding ([3H]-DAMGO, HEK293 cell homogenates); details: for inhibition at 10 µM: Percent inhibition at 10,000 nM, [3H]-DAMGO
T1 construct: expressed in transfected cells; host or cells: HEK293
T1 sequence (P35372 whole entry, species assumed): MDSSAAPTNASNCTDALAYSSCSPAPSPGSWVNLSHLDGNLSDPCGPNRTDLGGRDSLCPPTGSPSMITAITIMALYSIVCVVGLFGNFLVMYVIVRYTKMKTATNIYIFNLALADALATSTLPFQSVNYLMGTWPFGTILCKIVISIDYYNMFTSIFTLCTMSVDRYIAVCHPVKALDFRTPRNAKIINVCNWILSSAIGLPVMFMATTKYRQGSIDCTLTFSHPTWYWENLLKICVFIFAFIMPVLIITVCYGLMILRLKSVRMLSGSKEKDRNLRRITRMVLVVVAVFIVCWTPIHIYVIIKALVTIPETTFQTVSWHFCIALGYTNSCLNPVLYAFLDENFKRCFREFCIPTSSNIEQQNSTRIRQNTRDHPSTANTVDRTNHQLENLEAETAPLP

DOR (δ opioid receptor) = target: T2, DOR (δ opioid receptor) (Homo sapiens, UniProt P41143); test: DOR radioligand binding ([3H]-DADLE, HEK293 cell homogenates); details: Percent inhibition at 10,000 nM; [3H]-DADLE
T2 construct: expressed in transfected cells; host or cells: HEK293
T2 sequence (P41143 whole entry): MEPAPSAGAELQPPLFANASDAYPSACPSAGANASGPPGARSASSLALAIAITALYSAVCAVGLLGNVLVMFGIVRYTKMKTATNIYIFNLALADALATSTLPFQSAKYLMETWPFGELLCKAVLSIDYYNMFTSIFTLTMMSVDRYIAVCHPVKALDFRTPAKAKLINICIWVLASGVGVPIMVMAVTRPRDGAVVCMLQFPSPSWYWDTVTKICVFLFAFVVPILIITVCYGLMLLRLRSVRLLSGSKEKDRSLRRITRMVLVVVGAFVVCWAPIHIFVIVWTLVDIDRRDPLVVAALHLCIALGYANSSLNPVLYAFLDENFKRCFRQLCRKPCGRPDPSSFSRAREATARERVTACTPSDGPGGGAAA

KOR (κ opioid receptor) = target: T3, KOR (κ opioid receptor) (Homo sapiens, UniProt P41145); test: KOR radioligand binding ([3H]-U69593, HEK293 cell homogenates); details: for inhibition at 10 µM: Percent inhibition at 10,000 nM, [3H]-U69593
T3 construct: expressed in transfected cells; host or cells: HEK293 (stably transfected)
T3 sequence (P41145 whole entry): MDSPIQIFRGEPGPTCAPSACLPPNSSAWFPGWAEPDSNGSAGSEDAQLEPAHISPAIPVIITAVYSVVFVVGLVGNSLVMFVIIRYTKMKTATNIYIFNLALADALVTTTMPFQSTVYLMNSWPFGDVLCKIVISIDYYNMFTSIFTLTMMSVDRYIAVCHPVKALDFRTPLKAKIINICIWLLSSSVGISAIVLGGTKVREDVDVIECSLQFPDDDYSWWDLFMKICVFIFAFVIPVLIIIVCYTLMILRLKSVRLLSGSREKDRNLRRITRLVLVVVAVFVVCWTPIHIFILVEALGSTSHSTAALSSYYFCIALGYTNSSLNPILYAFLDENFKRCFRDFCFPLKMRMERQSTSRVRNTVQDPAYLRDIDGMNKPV

Compound | Cell viability (%) RAW macrophages 50 μM (RAW macrophages [1]) [%] | Cell viability (%) Mouse microglia 50 μM (Mouse microglia [2]) [%] | Inhibition of NO production (%) Mouse microglia 10 μM (Mouse microglia [3]; 24 hours, 1 μM GABA, LPS/IFNγ) [%] | Cell viability (%) HEK293 120 μM (HEK293) [%] | Inhibition of NO production (%) RAW macrophages 10 μM (RAW macrophages [4]) [%] | Cell viability (%) HEPG2 120 μM (HEPG2) [%] | also measured
CC1N=C(c2ccccc2F)c2cc(Br)ccc2-n2cnc(-c3cnco3)c21 (racemic) [GL-III-76A] | 97 ± 4 | 100 ± 9 | 58 ± 9 | 0 ± 3 | 6 ± 3 | 0 ± 2 | toxicity at 120 μM (in words) (HEK293; HEK293, 120 μM): toxic; toxicity at 120 μM (in words) (HEPG2; HepG2, 120 μM): toxic
C#Cc1ccc2c(c1)C(c1ccccc1)=NCc1c(C(=O)OCCCO)ncn1-2 [GL-I-48] | 100 ± 12 | 78 ± 5 | 0 ± 4 | 65 ± 8 | 4 ± 2 | 100 ± 4 | –
O=C(O)c1ncn2c1CN=C(c1ccccc1)c1cc(Br)ccc1-2 [GL-I-50] | 100 ± 9 | 88 ± 9 | 33 ± 6 | 97 ± 12 | 0 ± 1 | 100 ± 2 | –
C#Cc1ccc2c(c1)C(c1ccccc1F)=N[C@H](C)C(=O)N2 [GL-I-62] | 100 ± 3 | 92 ± 7 | 13 ± 7 | 79 ± 7 | 3 ± 2 | 89 ± 10 | –
C#Cc1ccc2c(c1)C(c1ccccc1F)=N[C@@H](C)C(=O)N2 [GL-I-64] | 100 ± 5 | 81 ± 5 | 24 ± 3 | 77 ± 13 | 3 ± 3 | 100 ± 9 | –
C#Cc1ccc2c(c1)C(c1ccccc1F)=N[C@@H](C)c1c(-c3nc(C(C)C)no3)ncn1-2 [GL-I-81, (S)-5-(8-Ethynyl-6-(2-fluorophenyl)-4-methyl-4H-benzo[f]imidazo[1,5-a][1,4]diazepin-3-yl)-3-isopropyl-1,2,4-oxadiazole] | 91 ± 7 | 94 ± 10 | – | – | – | – | BZR % [5]: 83%; Ki [5]: 839 nM; inhibition at 10 µM (Mouse microglia [3]): 64 ± 9%; inhibition at 50 µM (Mouse microglia [3]): 87 ± 2%; Ki (MOR (μ opioid receptor)): 2920 nM; inhibition at 10 µM (MOR (μ opioid receptor)): 64%; inhibition at 10 µM (DOR (δ opioid receptor)): 25%; Ki (KOR (κ opioid receptor)): 127 nM; inhibition at 10 µM (KOR (κ opioid receptor)): 93%; inhibition at 10 µM (RAW macrophages [4]; Mus musculus, Macrophage, 24 h): 0%; inhibition at 50 µM (RAW macrophages [4]; Mus musculus, Macrophage, 24 h): 6 ± 2%
CC1N=C(c2ccccn2)c2cc(Br)ccc2NC1=O (stereo not drawn) [GL-II-05] | 100 ± 11 | 88 ± 8 | 12 ± 5 | 94 ± 3 | 0 ± 1 | 92 ± 5 | –
CCOC(=O)c1ncn2c1[C@@H](C)N=C(c1ccccn1)c1cc(C#C[Si](C)(C)C)ccc1-2 [GL-II-18] | 99 ± 2 | 89 ± 9 | 49 ± 10 | 53 ± 10 | 11 ± 4 | 100 ± 8 | –
C#Cc1ccc2c(c1)C(c1ccccn1)=N[C@H](C)c1c(C(=O)OC)ncn1-2 [GL-II-32] | 100 ± 4 | 95 ± 8 | – | 80 ± 6 | – | – | BZR % [5]: 63%; Ki [5]: 1430 nM; inhibition at 10 µM (Mouse microglia [3]): 7 ± 2%; inhibition at 10 µM (MOR (μ opioid receptor)): 32%; inhibition at 10 µM (DOR (δ opioid receptor)): 0%; inhibition at 10 µM (KOR (κ opioid receptor)): 35%; inhibition at 10 µM (RAW macrophages [4]; Mus musculus, Macrophage, 24 h): 6 ± 3%
C#Cc1ccc2c(c1)C(c1ccccn1)=NC(C)c1c(-c3nc(C)no3)ncn1-2 (stereo not drawn) [GL-II-33] | 100 ± 7 | 100 ± 4 | – | – | – | – | Inhibition of NO production (%) Mouse microglia 50 μM (Mouse microglia [3]; 50 μM, 24 hours, 1 μM GABA, LPS/IFNγ): 0 ± 3%; NO production of activated microglia (in words) (Mouse microglia [3]; dexamethasone 100 nM, GABA 1 μM, MP-IV-010 50 μM, GL-II-33 in the library screen): did not reduce NO production
C#Cc1ccc2c(c1)C(c1ccccn1)=N[C@H](C)c1c(-c3nc(CC)no3)ncn1-2 [GL-II-54] | 100 ± 8 | 95 ± 3 | – | – | – | – | BZR % [5]: 66%; Ki [5]: 2040 nM; inhibition at 50 µM (Mouse microglia [3]): 0%; inhibition at 10 µM (MOR (μ opioid receptor)): 0%; inhibition at 10 µM (DOR (δ opioid receptor)): 0%; Ki (KOR (κ opioid receptor)): 504 nM; inhibition at 10 µM (KOR (κ opioid receptor)): 80%
C#Cc1ccc2c(c1)C(c1ccccn1)=NC(C)C(=O)N2C (stereo not drawn) [GL-II-61] | 100 ± 8 | 91 ± 8 | 28 ± 2 | 83 ± 10 | 10 ± 4 | 82 ± 3 | –
C#Cc1ccc2c(c1)C(c1ccccc1F)=NCc1c(C(=O)O)ncn1-2 [GL-II-79] | 100 ± 3 | 84 ± 5 | 44 ± 6 | 91 ± 13 | 0 ± 3 | 100 ± 7 | –
C#Cc1ccc2c(c1)C(c1ccccn1)=NCc1c(C(=O)O)ncn1-2 [GL-III-13] | 100 ± 9 | 92 ± 9 | – | 74 ± 5 | 0 ± 2 | 100 ± 10 | –
C#Cc1ccc2c(c1)C(c1ccccn1)=NCC(=O)N2 [GL-III-58] | 100 ± 14 | 83 ± 4 | 48 ± 4 | 89 ± 2 | – | 100 ± 5 | –
